# From patent US11377469B2, “CD73 inhibitors” (ORIC Pharmaceuticals, Inc., priority 2017, dated 2022)
# pIC50: −log10 of the molar value.
# Target: CD73 (Homo sapiens (Human), UniProt P21589)
# Assay: Biochemical Assay (CD73 inhibition, AMP hydrolysis, Malachite Green readout)
# Settings: CD73 0.3208 nM, AMP 15 μM, Tris-HCl pH 7.4, Malachite Green absorbance
# Description: Example A1: Biochemical Assay
# Assay Reaction Conditions
# • Assay Volume: 70 μl • Reaction Volume: 50 μl • CD73: 0.3208 nM • AMP: 15 μM • Assay Buffer: 2 5 mM Tris-HCL, pH 7.4, 0.01% Brij-35, 0.01% BSA, 5 mM MgCl2 Assay Procedure:
# Made dose titration of testing compounds in assay buffer, 10 points ½ log titrations in duplicates starting at 100 μM.
# Added 25 μl of CD73 to each well for a final concentration of 320 pM.
# Incubated at RT for 15 min.
# Added 25 μl of AMP to each well for a final concentration of 15 μM.
# Incubated at RT for 10 min.
# Added 10 μl of Malachite Green Reagent A, incubate at RT for 10 min.
# Added 10 μl of Malachite Green Reagent B, incubate at RT for 45 min. […]
# The ability of the compounds disclosed herein to inhibit CD73 activity was quantified and the respective IC50 values were determined. Table 1 provides the biochemical IC50 values of compounds disclosed herein.
# Chain of CD73 (P21589 27-574): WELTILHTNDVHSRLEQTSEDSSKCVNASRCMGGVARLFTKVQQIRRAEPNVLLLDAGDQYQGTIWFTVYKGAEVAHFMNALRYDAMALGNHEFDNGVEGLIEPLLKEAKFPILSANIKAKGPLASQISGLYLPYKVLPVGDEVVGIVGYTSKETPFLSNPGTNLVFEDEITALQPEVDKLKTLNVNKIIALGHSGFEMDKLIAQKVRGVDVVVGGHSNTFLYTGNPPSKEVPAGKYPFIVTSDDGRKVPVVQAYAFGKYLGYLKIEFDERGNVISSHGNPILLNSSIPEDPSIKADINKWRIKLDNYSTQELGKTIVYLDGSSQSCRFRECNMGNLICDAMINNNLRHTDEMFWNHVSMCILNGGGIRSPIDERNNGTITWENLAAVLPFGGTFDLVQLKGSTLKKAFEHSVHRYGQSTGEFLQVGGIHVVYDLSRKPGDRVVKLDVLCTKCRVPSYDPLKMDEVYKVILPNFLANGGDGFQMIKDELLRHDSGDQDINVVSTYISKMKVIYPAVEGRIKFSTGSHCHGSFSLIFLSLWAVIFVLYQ
row,SMILES,pIC50
1,"O=P(O)(O)COC[C@H]1O[C@@H](n2ncc3c(NCc4cccc5ccccc45)nc(Cl)nc32)[C@H](O)[C@@H]1O [Example 49, ((((2R,3S,4R,5R)-5-(6-chloro-4-((naphthalen-1-ylmethyl)amino)-1H-pyrazolo[3,4-d]pyrimidin-1-yl)-3,4-dihydroxytetrahydrofuran-2-yl)methoxy)methyl)phosphonic acid]",≥ 6.30
2,"CN(c1nc(Cl)nc2c1cnn2[C@@H]1O[C@H](COCP(=O)(O)O)[C@@H](O)[C@H]1O)C1CCCC1 [Example 53, ((((2R,3S,4R,5R)-5-(6-chloro-4-(cyclopentyl(methyl)amino)-1H-pyrazolo[3,4-d]pyrimidin-1-yl)-3,4-dihydroxytetrahydrofuran-2-yl)methoxy)methyl)phosphonic acid]",≥ 6.30
3,"CC(C)COc1nc(NCc2cccc(Cl)c2)c2cnn([C@@H]3O[C@H](COCP(=O)(O)O)[C@@H](O)[C@H]3O)c2n1 [Example 54, ((((2R,3S,4R,5R)-5-(4-((3-chlorobenzyl)amino)-6-isobutoxy-1H-pyrazolo[3,4-d]pyrimidin-1-yl)-3,4-dihydroxytetrahydrofuran-2-yl)methoxy)methyl)phosphonic acid]",< 6.00
4,"O=P(O)(O)COC[C@H]1O[C@@H](n2ncc3c(NCc4cccc(Cl)c4)nc(N4CCCC4)nc32)[C@H](O)[C@@H]1O [Example 55, ((((2R,3S,4R,5R)-5-(4-((3-chlorobenzyl)amino)-6-(pyrrolidin-1-yl)-1H-pyrazolo[3,4-d]pyrimidin-1-yl)-3,4-dihydroxytetrahydrofuran-2-yl)methoxy)methyl)phosphonic acid]",< 6.00
5,"Nc1nc(Cl)nc2c1cnn2[C@@H]1O[C@H](COCP(=O)(O)O)[C@@H](O)[C@H]1O [Example 57, ((((2R,3S,4R,5R)-5-(4-amino-6-chloro-1H-pyrazolo[3,4-d]pyrimidin-1-yl)-3,4-dihydroxytetrahydrofuran-2-yl)methoxy)methyl)phosphonic acid]",6.00 to 6.30
6,"CN(Cc1ccccc1Cl)c1nc(Cl)nc2c1nnn2[C@@H]1O[C@H](COCP(=O)(O)O)[C@@H](O)[C@H]1O [Example 59, ((((2R,3S,4R,5R)-5-(5-chloro-7-((2-chlorobenzyl)(methyl)amino)-3H-[1,2,3]triazolo[4,5-d]pyrimidin-3-yl)-3,4-dihydroxytetrahydrofuran-2-yl)methoxy)methyl)phosphonic acid]",≥ 6.30
7,"CC(C)CNc1nc(Cl)nc2c1cnn2[C@@H]1O[C@H](COCP(=O)(O)O)[C@@H](O)[C@H]1O [Example 63, ((((2R,3S,4R,5R)-5-(6-chloro-4-(isobutylamino)-1H-pyrazolo[3,4-d]pyrimidin-1-yl)-3,4-dihydroxytetrahydrofuran-2-yl)methoxy)methyl)phosphonic acid]",≥ 6.30
8,"O=P(O)(O)CS(=O)(=O)C[C@H]1O[C@@H](n2ncc3c(NC4CCCC4)nc(Cl)nc32)[C@H](O)[C@@H]1O [Example 66, (((((2S,3S,4R,5R)-5-(6-chloro-4-(cyclopentylamino)-1H-pyrazolo[3,4-d]pyrimidin-1-yl)-3,4-dihydroxytetrahydrofuran-2-yl)methyl)sulfonyl)methyl)phosphonic acid]",≥ 6.30
9,"O=P(O)(O)COC[C@H]1O[C@@H](n2ncc3c(NCC4CCC4)nc(Cl)nc32)[C@H](O)[C@@H]1O [Example 68, ((((2R,3S,4R,5R)-5-(6-chloro-4-((cyclobutylmethyl)amino)-1H-pyrazolo[3,4-d]pyrimidin-1-yl)-3,4-dihydroxytetrahydrofuran-2-yl)methoxy)methyl)phosphonic acid]",≥ 6.30
10,"O=P(O)(O)COC[C@H]1O[C@@H](n2ncc3c(NC[C@@H]4CCCO4)nc(Cl)nc32)[C@H](O)[C@@H]1O [Example 69, ((((2R,3S,4R,5R)-5-(6-chloro-4-((((S)-tetrahydrofuran-2-yl)methyl)amino)-1H-pyrazolo[3,4-d]pyrimidin-1-yl)-3,4-dihydroxytetrahydrofuran-2-yl)methoxy)methyl)phosphonic acid]",≥ 6.30
11,"O=P(O)(O)COC[C@H]1O[C@@H](n2ncc3c(NC[C@H]4CCCO4)nc(Cl)nc32)[C@H](O)[C@@H]1O [Example 70, ((((2R,3S,4R,5R)-5-(6-chloro-4-((((R)-tetrahydrofuran-2-yl)methyl)amino)-1H-pyrazolo[3,4-d]pyrimidin-1-yl)-3,4-dihydroxytetrahydrofuran-2-yl)methoxy)methyl)phosphonic acid]",≥ 6.30
12,"O=P(O)(O)COC[C@H]1O[C@@H](n2ncc3c(NC[C@@H]4CCOC4)nc(Cl)nc32)[C@H](O)[C@@H]1O [Example 71, ((((2R,3S,4R,5R)-5-(6-chloro-4-((((S)-tetrahydrofuran-3-yl)methyl)amino)-1H-pyrazolo[3,4-d]pyrimidin-1-yl)-3,4-dihydroxytetrahydrofuran-2-yl)methoxy)methyl)phosphonic acid]",≥ 6.30
13,"O=P(O)(O)COC[C@H]1O[C@@H](n2ncc3c(NC4CCOCC4)nc(Cl)nc32)[C@H](O)[C@@H]1O [Example 73, ((((2R,3S,4R,5R)-5-(6-chloro-4-((tetrahydro-2H-pyran-4-yl)amino)-1H-pyrazolo[3,4-d]pyrimidin-1-yl)-3,4-dihydroxytetrahydrofuran-2-yl)methoxy)methyl)phosphonic acid]",≥ 6.30

# Results, then the compound that gave them:
row,pIC50,SMILES
1,< 6.00,"C[C@H](OCP(=O)(O)O)[C@H]1O[C@@H](n2ncc3c(NCc4ccccc4Cl)nc(Cl)nc32)[C@H](O)[C@@H]1O [Example 50, (((S)-1-((2S,3S,4R,5R)-5-(6-chloro-4-((2-chlorobenzyl)amino)-1H-pyrazolo[3,4-d]pyrimidin-1-yl)-3,4-dihydroxytetrahydrofuran-2-yl)ethoxy)methyl)phosphonic acid]"
2,≥ 6.30,"O=P(O)(O)COC[C@H]1O[C@@H](n2ncc3c(NCc4cccc5ncccc45)nc(Cl)nc32)[C@H](O)[C@@H]1O [Example 51, ((((2R,3S,4R,5R)-5-(6-chloro-4-((quinolin-5-ylmethyl)amino)-1H-pyrazolo[3,4-d]pyrimidin-1-yl)-3,4-dihydroxytetrahydrofuran-2-yl)methoxy)methyl)phosphonic acid]"
3,< 6.00,"CNc1nc(NCc2cccc(Cl)c2)c2cnn([C@@H]3O[C@H](COCP(=O)(O)O)[C@@H](O)[C@H]3O)c2n1 [Example 56, ((((2R,3S,4R,5R)-5-(4-((3-chlorobenzyl)amino)-6-(methylamino)-1H-pyrazolo[3,4-d]pyrimidin-1-yl)-3,4-dihydroxytetrahydrofuran-2-yl)methoxy)methyl)phosphonic acid]"
4,≥ 6.30,"O=P(O)(O)COC[C@H]1O[C@@H](n2ncc3c(NCc4cccc(Cl)c4F)nc(Cl)nc32)[C@H](O)[C@@H]1O [Example 58, ((((2R,3S,4R,5R)-5-(6-chloro-4-((3-chloro-2-fluorobenzyl)amino)-1H-pyrazolo[3,4-d]pyrimidin-1-yl)-3,4-dihydroxytetrahydrofuran-2-yl)methoxy)methyl)phosphonic acid]"
5,< 6.00,"C[C@@H](OCP(=O)(O)O)[C@H]1O[C@@H](n2ncc3c(NCc4ccccc4Cl)nc(Cl)nc32)[C@H](O)[C@@H]1O [Example 60, (((R)-1-((2S,3S,4R,5R)-5-(6-chloro-4-((2-chlorobenzyl)amino)-1H-pyrazolo[3,4-d]pyrimidin-1-yl)-3,4-dihydroxytetrahydrofuran-2-yl)ethoxy)methyl)phosphonic acid]"
6,≥ 6.30,"O=P(O)(O)CS(=O)(=O)C[C@H]1O[C@@H](n2ncc3c(NCc4cccc(Cl)c4)nc(Cl)nc32)[C@H](O)[C@@H]1O [Example 61, (((((2S,3S,4R,5R)-5-(6-chloro-4-((3-chlorobenzyl)amino)-1H-pyrazolo[3,4-d]pyrimidin-1-yl)-3,4-dihydroxytetrahydrofuran-2-yl)methyl)sulfonyl)methyl)phosphonic acid]"
7,≥ 6.30,O=P(O)(O)CS(=O)(=O)C[C@H]1O[C@@H](n2ncc3c(NCC4CC4)nc(Cl)nc32)[C@H](O)[C@@H]1O [Example 62]
8,6.00 to 6.30,"CN(Cc1ccccc1Cl)c1nc(Cl)nc2c1cnn2[C@@H]1O[C@H](COCP(=O)(O)O)[C@@H](O)[C@H]1O [Example 64, ((((2R,3S,4R,5R)-5-(6-chloro-4-((2-chlorobenzyl)(methyl)amino)-1H-pyrazolo[3,4-d]pyrimidin-1-yl)-3,4-dihydroxytetrahydrofuran-2-yl)methoxy)methyl)phosphonic acid]"
9,< 6.00,"O=P(O)(O)COC[C@H]1O[C@@H](n2ncc3c(OCc4cccc(Cl)c4)nc(Cl)nc32)[C@H](O)[C@@H]1O [Example 65, ((((2R,3S,4R,5R)-5-(6-chloro-4-((3-chlorobenzyl)oxy)-1H-pyrazolo[3,4-d]pyrimidin-1-yl)-3,4-dihydroxytetrahydrofuran-2-yl)methoxy)methyl)phosphonic acid]"
10,< 6.00,"CC(C)CNc1nc(NCc2cccc(Cl)c2)c2cnn([C@@H]3O[C@H](COCP(=O)(O)O)[C@@H](O)[C@H]3O)c2n1 [Example 67, ((((2R,3S,4R,5R)-5-(4-((3-chlorobenzyl)amino)-6-(isobutylamino)-1H-pyrazolo[3,4-d]pyrimidin-1-yl)-3,4-dihydroxytetrahydrofuran-2-yl)methoxy)methyl)phosphonic acid]"
11,≥ 6.30,"CN(CC1CC1)c1nc(Cl)nc2c1cnn2[C@@H]1O[C@H](COCP(=O)(O)O)[C@@H](O)[C@H]1O [Example 72, ((((2R,3S,4R,5R)-5-(6-chloro-4-((cyclopropylmethyl)(methyl)amino)-1H-pyrazolo[3,4-d]pyrimidin-1-yl)-3,4-dihydroxytetrahydrofuran-2-yl)methoxy)methyl)phosphonic acid]"
